In patent publication US8153408B2, “Biocatalytic racemisation of alpha-hydroxyketones” (BASF SE, priority 2006, dated 2012):

Columns and labels:
[1] = system: rehydrated lyophilised (resting) cells of Lactobacillus paracasei subsp. paracasei DSM 20207; test: Biocatalytic racemisation of acyloins 1-4 by whole resting cells; type: cell-based; settings: L. paracasei DSM 20207 cells; for Relative Rate (initial rate of racemisation relative to (R)-1 arbitrarily set as standard (100%)): aqueous BIS-TRIS buffer pH 6, 42° C.; for racemisation rate (in words): aqueous buffer at pH 6; for Racemization (extent of racemisation under standard conditions after 24 h): pH 6, 42° C.
Experimental: (§1) After 3 days, the cells were harvested by centrifugation (18000*g), lyophilised and stored at +4° C. For the biocatalytic racemisation, 50 mg of whole lyophilised cells were rehydrated in 0.5 ml aqueous BIS-TRIS buffer (50 mM, 10^−2 M MgCl2, pH 6) for 1 h at 42° C. with shaking at 150 rpm. Substrates 1-4 (5 mg) were added followed by shaking of the reaction mixture with 150 rpm at 42° C. for 24 h, 48 h and 72 h. Then the reaction mixture was extracted with ethyl acetate and the organic phase was dried over sodium sulfate. The organic phase was evaporated under reduced pressure and the residue was dissolved in HPLC-eluent. The determination the enantiomeric excess of the substrate was carried out by HPLC on a chiral stationary phase. Analysis of the enantiomeric composition versus time gave the initial rates of racemisation, which are represented as % with respect to substrate (R)-1 sert as standard (100%).
(§2) The biocatalytic racemisation of acyloins 1-4 was performed using rehydrated lyophilised (resting) cells of Lactobacillus paracasei subsp. paracasei DSM 20207 in aqueous buffer at pH 6, the racemisation of acyloins 5-6 by using rehydrated lyophilised (resting) cells of Lactobacillus halotoleransi DSM 20190.

[2] = system: rehydrated lyophilised (resting) cells of Lactobacillus halotoleransi DSM 20190; test: Biocatalytic racemisation of acyloins 5-6 by whole resting cells; type: cell-based, Lactobacillus halotolerans DSM 20190; settings: L. halotolerans DSM 20190 cells; for Relative Rate (initial rate of racemisation relative to (R)-1 arbitrarily set as standard (100%)): aqueous BIS-TRIS buffer pH 6, 42° C.; for Racemization (extent of racemisation under standard conditions after 24 h): pH 6, 42° C.
Experimental: as §1, §2

SMILES | Relative Rate (initial rate of racemisation relative to (R)-1 arbitrarily set as standard (100%)) [1] | racemisation rate (in words) [1] | Racemization (extent of racemisation under standard conditions after 24 h) [1] | racemisation (in words) [2] | Relative Rate (initial rate of racemisation relative to (R)-1 arbitrarily set as standard (100%)) [2] | Racemization (extent of racemisation under standard conditions after 24 h) [2]
CC(=O)[C@H](O)c1ccccc1 [(R)-3, (R)-phenylacetylcarbinol] | 67% | High racemisation rates | 50% |  |  | 
CC(=O)[C@@H](C)O [(R)-1, acetoin] | 100% | fast racemisation rate | 86% |  |  | 
O=C1c2ccccc2CC[C@H]1O [(R)-5, (R)-2-Hydroxy-1,2,3,4-tetranaphtalin-1-one] |  |  |  | high racemisation | 77% | 92%
O=C1c2ccccc2C[C@H]1O [(R)-6, (R)-2-Hydroxyindane-1-one] |  |  |  | high racemisation | 58% | 84%
C[C@@H](O)C(=O)c1ccccc1 [(R)-4, (R)-2-hydroxypropiophenone] | 65% | slightly reduced | 46% |  |  | 
